For one assay, the system named is NCI-H292. In words: Cytotoxic effects, MTT assay. Type of assay: cell-based. The following applies: Homo sapiens, 72 h incubation. As to the method: The cells are cultivated by a standard method, as indicated in the […] (ATCC) for the respective cell lines.
At the end of the selected incubation time, the MTT reagent is incubated with the cells for 4 h, followed by lysis of the cells overnight by addition of the detergent. […] The proliferation of cells which were not treated with test substance but were otherwise identically treated was defined as the 100% figure.

Assay [1] addresses T1, human kinesin spindle protein KSP/Eg5 (Homo sapiens, UniProt P52732).
T1 construct: The motor domain of the human kinesin spindle protein KSP/Eg5; purchased tebu-bio/Cytoskeleton Inc 027EG01-XL
T1 sequence (P52732 18-359 limits assumed): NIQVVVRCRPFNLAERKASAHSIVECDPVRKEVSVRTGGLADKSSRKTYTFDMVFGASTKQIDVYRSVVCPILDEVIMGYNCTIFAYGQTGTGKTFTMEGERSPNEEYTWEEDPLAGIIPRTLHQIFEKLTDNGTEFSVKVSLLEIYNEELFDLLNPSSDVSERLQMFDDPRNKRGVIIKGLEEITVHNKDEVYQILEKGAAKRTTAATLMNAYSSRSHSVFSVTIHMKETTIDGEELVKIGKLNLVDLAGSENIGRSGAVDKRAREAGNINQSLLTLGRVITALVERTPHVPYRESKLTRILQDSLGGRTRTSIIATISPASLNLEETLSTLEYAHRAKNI
The assay is described as follows: Inhibition of the kinesin spindle protein KSP/Eg5 (ATPase, malachite green). Type of assay: biochemical. The following applies: 10 nM KSP motor domain, 500 μM ATP, 2 h RT. An outline of the steps:
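KSP/Eg5 motor domain (10 nM) preincubated 5 min at RT with 50 μg/ml taxol-stabilized bovine or porcine microtubules in 15 mM PIPES pH 6.8, 5 mM MgCl2, 10 mM DTT. IC50 = mean of three experiments.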

For `Cc1ccc(C(=O)N(CCCN)[C@@H](c2nn(-c3cc(F)ccc3F)cc2Cc2ccccc2)C(C)(C)C)cc1` [Example 184, N-(3-aminopropyl)-N-{(1R)-1-[4-benzyl-1-(2,5-difluorophenyl)-1H-pyrazol-3-yl]-2,2-dimethylpropyl}-4 methylbenzamide], the IC50 with NCI-H292 turned out to be 27.8 nM; in assay [1], 14.3 nM.

For the compound `CCOCC(=O)N(CCCN)[C@@H](c1nn(-c2cc(F)ccc2F)cc1Cc1ccccc1)C(C)(C)C` [Example 185, N-(3-aminopropyl)-N-{(1R)-1-[4-benzyl-1-(2,5-difluorophenyl)-1H-pyrazol-3-yl]-2,2-dimethylpropyl}-2-ethoxyacetamide], the IC50 in the assay with NCI-H292 turned out to be 12 nM; in assay [1], 18 nM.

For `CC(C)(C)[C@H](c1cc(-c2cc(F)ccc2F)cn1Cc1ccccc1)N(CCCN)C(=O)CC(F)(F)F` [Example 186, N-(3-Aminopropyl)-N-{(1R)-1-[1-benzyl-4-(2,5-difluorophenyl)-1H-pyrrol-2-yl]-2,2-dimethylpropyl}-3,3,3-trifluoropropanamide], the IC50 with NCI-H292 turned out to be 9.29 nM; in assay [1], 25.3 nM.

As for `CC(C)(C)[C@H](c1cc(-c2cc(F)ccc2F)cn1Cc1ccccc1)N(CCCN)C(=O)c1ccc(F)cc1` [Example 187, N-(3-aminopropyl)-N-{(1R)-1-[1-benzyl-4-(2,5-difluorophenyl)-1H-pyrrol-2-yl]-2,2-dimethylpropyl}-4-fluorobenzamide], the IC50 amounted to 1.98 nM in the assay on NCI-H292 and 14.1 nM in assay [1].

On to `CC(=O)N(CCCN)[C@@H](c1cc(-c2cc(F)ccc2F)cn1Cc1ccccc1)C(C)(C)C` [Example 188, N-(3-aminopropyl)-N-{(1R)1-[1-benzyl-4-(2,5-difluorophenyl)-1H-pyrrol-2-yl]-2,2-dimethylpropyl}acetamide], for which the IC50 with NCI-H292 came to 0.928 nM; in assay [1] it was 10.1 nM.

Turning to `CC(C)(C)[C@H](c1cc(-c2cc(F)ccc2F)cn1Cc1ccccc1)N(CCCN)C(=O)c1ccc(C(F)(F)F)cc1` [Example 189, N-(3-aminopropyl)-N-{(1R)-1-[1-benzyl-4-(2,5-difluorophenyl)-1H-pyrrol-2-yl]-2,2-dimethylpropyl}-4-(trifluoromethyl)benzamide], the IC50 in the assay on NCI-H292 came out at 8.76 nM; in assay [1] it was 11.2 nM.

Take `CC(C)(C)[C@H](c1cc(-c2cc(F)ccc2F)cn1Cc1ccccc1)N(CCCN)C(=O)c1ccc(F)cc1F` [Example 190]: the IC50 is 5.42 nM in the assay with NCI-H292 and 9.61 nM in assay [1].

On to `CC(C)(C)[C@H](c1cc(-c2cc(F)ccc2F)cn1Cc1ccccc1)N(CC[C@H](N)C(=O)NCCC(=O)O)C(=O)CO` [Example 200, N-{(2S)-2-Amino-4-[{(1R)-1-[1-benzyl-4-(2,5-difluorophenyl)-1H-pyrrol-2-yl]-2,2-dimethylpropyl}(glycoloyl)amino]butanoyl}-beta-alanine/trifluoroacetic acid (1:1)], for which the IC50 with NCI-H292 was 140 nM; in assay [1], 0.108 nM.

For `C[C@H](NC(=O)[C@@H](N)CCN(C(=O)CO)[C@@H](c1cc(-c2cc(F)ccc2F)cn1Cc1ccccc1)C(C)(C)C)C(=O)O` [Example 202, N-{(2S)-2-Amino-4-{[(1R)-1-[1-benzyl-4-(2,5-difluorophenyl)-1H-pyrrol-2-yl]-2,2-dimethylpropyl}(glycoloyl)amino]butanoyl}-L-alanine/trifluoroacetic acid (1:1)], the results for the IC50 (in the assay with NCI-H292; in assay [1]) were 422 nM and 0.256 nM, respectively.

Turning to `Cc1ccc(C(=O)N(CCCN)[C@@H](c2cc(-c3cc(F)ccc3F)cn2Cc2ccccc2)C(C)(C)C)cc1` [Example 219, Trifluoroacetic acid/N-(3-aminopropyl)-N-{(1R)-1-[1-benzyl-4-(2,5-difluorophenyl)-1H-pyrrol-2-yl]-2,2-dimethylpropyl}-4-methylbenzamide (1:1)], the IC50 in the assay on NCI-H292 was 3.48 nM; in assay [1] it was 1.13 nM.

Source of the values: patent US10022453B2 (BAYER PHARMA AKTIENGESELLSCHAFT, priority 2013, dated 2018).
